In brackets after ≈: the same amount, converted by molar mass. Activity calls are given as the source filed them. The calls are words filed in the database; no cut-off is given here.
How the values were obtained:
[1] = system: Escherichia coli; experiment: Antibacterial activity against Escherichia coli TG-1 transfected with Klebsiella pneumoniae full-length NDM-1 beta-lactamase gene; format: functional
[2] = system: Escherichia coli; experiment: Antibacterial activity against Escherichia coli BJE-4 expressing NDM-1 gene; format: functional
[3] = system: Escherichia coli; experiment: Synergistic antibacterial activity against Escherichia coli TG-1 transfected with Klebsiella pneumoniae full-length NDM-1 beta lactamase gene assessed as fractional inhibitory concentration index in presence of meropenem; format: functional
[4] = system: Escherichia coli; experiment: Synergistic antibacterial activity against Escherichia coli BJE-4 expressing NDM-1 gene assessed as fractional inhibitory concentration index in presence of meropenem; format: functional
[5] = system: Escherichia coli; experiment: Antibacterial activity against Escherichia coli BJE-4 expressing NDM-1 gene in presence of meropenem; format: functional
[6] = system: Escherichia coli; experiment: Antibacterial activity against Escherichia coli TG-1 transfected with Klebsiella pneumoniae full-length NDM-1 beta lactamase gene incubated in presence of meropenem; format: functional
[7] = target: Metallo-beta-lactamase type 2 (Bacteria, UniProt C7C422); experiment: Inhibition of NDM-1 (unknown origin) using nitrocefin as substrate incubated for 15 to 60 mins by absorption based analysis
[8] = system: Escherichia coli; experiment: Antibacterial activity against Escherichia coli producing NDM-1, CTX-M-15 and SHV-12 beta lactamases; format: functional
[9] = system: Enterobacter cloacae; experiment: Antibacterial activity against Enterobacter cloacae producing NDM-1, TEM-1 and SHV-12 beta-lactamases; format: functional
[10] = system: Caco-2; experiment: Antibacterial activity against Salmonella lomita SL131 infected in human Caco-2 cells assessed as reduction in bacterial survival rate at 64 ug/ml incubated for 6 hrs by agar dilution method; format: functional, cell-based; details: Salmonella enterica subsp. enterica serovar Lomita, dose 64.0 µg/ml
[11] = system: Citrobacter freundii; experiment: Antibacterial activity against Citrobacter freundii producing NDM-1 and SHV-12 beta-lactamases; format: functional
[12] = system: Klebsiella pneumoniae; experiment: Antibacterial activity against Klebsiella pneumoniae producing NDM-1, KPC-2 and SHV-12 beta-lactamases; format: functional
[13] = system: Escherichia coli; experiment: Antibacterial activity against Escherichia coli TG-1; format: functional
[14] = system: Escherichia coli; experiment: Antibacterial activity against Escherichia coli producing NDM-1 and CTX-M-15 beta lactamases; format: functional
[15] = system: Citrobacter freundii; experiment: Antibacterial activity against Citrobacter freundii producing NDM-1, CTX-M-3 and KPC-2 beta-lactamases; format: functional
[16] = system: Enterobacter cloacae; experiment: Antibacterial activity against Enterobacter cloacae producing NDM-1, CTX-M-14 and TEM-1 beta-lactamases; format: functional
[17] = system: Enterobacter cloacae; experiment: Antibacterial activity against Enterobacter cloacae producing NDM-1, IMP-4 and TEM-1 beta-lactamases; format: functional

Metallo-beta-lactamase type 2, sequence (C7C422 whole entry): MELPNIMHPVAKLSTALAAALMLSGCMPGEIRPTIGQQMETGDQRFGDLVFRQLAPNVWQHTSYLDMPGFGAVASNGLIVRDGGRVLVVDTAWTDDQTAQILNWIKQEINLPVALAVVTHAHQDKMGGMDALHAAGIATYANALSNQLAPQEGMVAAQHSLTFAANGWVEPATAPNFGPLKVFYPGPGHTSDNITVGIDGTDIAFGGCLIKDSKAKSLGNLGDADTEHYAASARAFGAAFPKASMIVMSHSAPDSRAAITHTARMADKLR

| SMILES | MIC [1] | MIC [2] | fractional inhibitory concentration index (FICI) [3] | fractional inhibitory concentration index (FICI) [4] | MIC [5] | MIC [6] | IC50 [7] | MIC [8] | MIC [9] | Activity [10] | MIC [11] | MIC [12] | MIC [13] | MIC [14] | MIC [15] | MIC [16] | MIC [17] |
| --- | --- | --- | --- | --- | --- | --- | --- | --- | --- | --- | --- | --- | --- | --- | --- | --- | --- |
| Cc1ccc(S(=O)(=O)NCCn2[se]c3ccccc3c2=O)cc1 | > 64 µg/mL | > 16 µg/mL | 0.25 | 0.625 | 8 µg/mL | ≤ 8 µg/mL | – | – | – | – | – | – | – | – | – | – | – |
| COc1ccc(S(=O)(=O)NCCn2[se]c3ccccc3c2=O)cc1 | > 64 µg/mL | > 16 µg/mL | 0.25 | 0.625 | 8 µg/mL | ≤ 8 µg/mL | – | – | – | – | – | – | – | – | – | – | – |
| CC(C)(C)OC(=O)NCCn1[se]c2ccccc2c1=O | > 64 µg/mL | > 16 µg/mL | 0.5 | 0.625 | 8 µg/mL | 16 µg/mL | 1.26 µM | – | – | – | – | – | – | – | – | – | – |
| O=c1c2ccccc2[se]n1-c1ccc(-c2ccccc2)cc1 | 64 µg/mL (≈ 183 µM) | > 16 µg/mL | 2 | 0.625 | 8 µg/mL | 64 µg/mL | – | – | – | – | – | – | – | – | – | – | – |
| CC(C)(C)OC(=O)NCCCCn1[se]c2ccccc2c1=O | > 64 µg/mL | > 16 µg/mL | 1 | 0.625 | 8 µg/mL | 32 µg/mL | – | – | – | – | – | – | – | – | – | – | – |
| CC(C)(C)c1ccc(S(=O)(=O)NCCn2[se]c3ccccc3c2=O)cc1 | > 64 µg/mL | > 16 µg/mL | 0.25 | 0.625 | 8 µg/mL | ≤ 8 µg/mL | – | – | – | – | – | – | – | – | – | – | – |
| O=c1c2ccccc2[se]n1CCNS(=O)(=O)c1ccc(Cl)c([N+](=O)[O-])c1 | > 64 µg/mL | > 16 µg/mL | 0.5 | 0.625 | 8 µg/mL | 16 µg/mL | – | – | – | – | – | – | – | – | – | – | – |
| COC(=O)c1ccc(-n2[se]c3ccccc3c2=O)cc1C | > 64 µg/mL | > 16 µg/mL | 0.5 | 0.625 | 8 µg/mL | 16 µg/mL | – | – | – | – | – | – | – | – | – | – | – |
| C[C@@H](O)[C@H]1C(=O)N2C(C(=O)O)=C(S[C@@H]3CN[C@H](C(=O)N(C)C)C3)[C@H](C)[C@H]12 [MEROPENEM] | > 64 µg/mL | > 16 µg/mL | – | – | – | – | – | > 64 µg/mL | 64 µg/mL (≈ 167 µM) | inactive | 64 µg/mL (≈ 167 µM) | > 64 µg/mL | 0.5 µg/mL (≈ 1.3 µM) | > 64 µg/mL | > 64 µg/mL | 64 µg/mL (≈ 167 µM) | 64 µg/mL (≈ 167 µM) |
| CC(C)(C)OC(=O)N1CC[C@@H](n2[se]c3ccccc3c2=O)C1 | > 64 µg/mL | > 16 µg/mL | 0.25 | 0.625 | 8 µg/mL | ≤ 8 µg/mL | – | – | – | – | – | – | – | – | – | – | – |
| CS(=O)(=O)c1ccc(-n2[se]c3ccccc3c2=O)cc1 | > 64 µg/mL | > 16 µg/mL | 0.25 | 0.625 | 8 µg/mL | ≤ 8 µg/mL | 7.29 µM | – | – | – | – | – | – | – | – | – | – |
| COC(=O)c1cccc(-n2[se]c3ccccc3c2=O)c1 | > 64 µg/mL | > 16 µg/mL | 0.25 | 0.625 | 8 µg/mL | ≤ 8 µg/mL | 3.63 µM | – | – | – | – | – | – | – | – | – | – |

— ChEMBL document CHEMBL5532748, “Design, synthesis and antibacterial activity evaluation of ebselen derivatives in NDM-1 producing bacteria” (RSC Med Chem, 2024)
